# Measurements: paper PMC7144155 (ACS Omega, 2020)
# Values joined by “and” are separate entries in the source; they are usually repeats but may differ in a detail not shown here. Equal values may be shown once.
# Tests used:
# [1] = system: traumatic brain injury; settings: after traumatic brain injury; cited from earlier work
# [2] = system: formalin-injected paw model of pain; settings: coadministration 450 μg/paw; P < 0.001; cited from earlier work
# [3] = target: T1, human dopamine D3 receptor (hD3R) (Homo sapiens, UniProt P35462); test: GPCR functional assay, agonist effect; type: cell-based; settings: for % stimulation: D3 (h), % of control response to 300 nM dopamine at 50 μM of anthraquinones
# T1 sequence (P35462 whole entry): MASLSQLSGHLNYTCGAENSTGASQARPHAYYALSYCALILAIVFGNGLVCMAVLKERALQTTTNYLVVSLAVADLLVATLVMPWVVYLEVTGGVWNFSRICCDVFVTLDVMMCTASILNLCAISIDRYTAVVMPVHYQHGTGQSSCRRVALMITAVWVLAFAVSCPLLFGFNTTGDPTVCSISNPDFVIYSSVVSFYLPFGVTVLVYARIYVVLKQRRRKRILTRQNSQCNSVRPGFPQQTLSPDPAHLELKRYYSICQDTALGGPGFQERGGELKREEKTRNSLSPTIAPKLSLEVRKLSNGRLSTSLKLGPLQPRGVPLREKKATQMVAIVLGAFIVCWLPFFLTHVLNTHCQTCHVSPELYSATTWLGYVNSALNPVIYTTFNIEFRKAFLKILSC
# [4] = target: acetylcholinesterase; settings: cited from earlier work
# [5] = target: T2, human vasopressin V1A receptor (hV1AR) (Homo sapiens, UniProt P37288); test: GPCR functional assay, agonist effect; type: cell-based; settings: for % stimulation: V1A (h), % of control response to 1 μM AVP at 50 μM of anthraquinones; for agonist response at hV1AR (in words): up to 50 μM
# T2 sequence (P37288 whole entry): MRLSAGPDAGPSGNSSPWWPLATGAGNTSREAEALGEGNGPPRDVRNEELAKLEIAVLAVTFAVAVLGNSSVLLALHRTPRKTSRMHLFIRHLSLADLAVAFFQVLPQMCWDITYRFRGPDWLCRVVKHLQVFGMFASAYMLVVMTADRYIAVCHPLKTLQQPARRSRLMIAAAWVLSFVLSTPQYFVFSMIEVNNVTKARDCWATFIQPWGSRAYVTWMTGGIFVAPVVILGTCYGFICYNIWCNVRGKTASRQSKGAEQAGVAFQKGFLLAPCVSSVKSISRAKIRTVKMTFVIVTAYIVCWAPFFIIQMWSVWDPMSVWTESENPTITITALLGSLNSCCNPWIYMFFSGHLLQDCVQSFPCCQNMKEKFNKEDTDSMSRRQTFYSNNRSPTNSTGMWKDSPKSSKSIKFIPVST
# [6] = target: T3, human dopamine D1 receptor (hD1R) (Homo sapiens, UniProt P21728); test: GPCR functional assay, agonist effect; type: cell-based; settings: D1 (h); % of control agonist (dopamine) response at 50 μM of anthraquinones
# T3 sequence (P21728 whole entry): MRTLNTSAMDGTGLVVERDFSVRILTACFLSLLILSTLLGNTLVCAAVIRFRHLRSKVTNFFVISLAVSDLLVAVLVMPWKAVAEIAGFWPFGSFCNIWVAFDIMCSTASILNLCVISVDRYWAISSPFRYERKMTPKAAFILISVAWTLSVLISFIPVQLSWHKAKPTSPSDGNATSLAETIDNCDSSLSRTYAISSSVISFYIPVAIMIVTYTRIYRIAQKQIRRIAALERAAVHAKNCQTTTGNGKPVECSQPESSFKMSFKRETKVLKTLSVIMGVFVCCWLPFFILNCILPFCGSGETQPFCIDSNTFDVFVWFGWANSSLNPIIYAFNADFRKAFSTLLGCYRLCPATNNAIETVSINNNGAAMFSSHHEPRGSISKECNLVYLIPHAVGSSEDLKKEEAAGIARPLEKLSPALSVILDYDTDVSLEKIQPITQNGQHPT
# [7] = target: T4, human dopamine D4 receptor (hD4R) (Homo sapiens, UniProt P21917); test: GPCR functional assay, antagonist effect; type: cell-based; settings: for inhibition at 50 µM: CHO
# T4 sequence (P21917 1-419): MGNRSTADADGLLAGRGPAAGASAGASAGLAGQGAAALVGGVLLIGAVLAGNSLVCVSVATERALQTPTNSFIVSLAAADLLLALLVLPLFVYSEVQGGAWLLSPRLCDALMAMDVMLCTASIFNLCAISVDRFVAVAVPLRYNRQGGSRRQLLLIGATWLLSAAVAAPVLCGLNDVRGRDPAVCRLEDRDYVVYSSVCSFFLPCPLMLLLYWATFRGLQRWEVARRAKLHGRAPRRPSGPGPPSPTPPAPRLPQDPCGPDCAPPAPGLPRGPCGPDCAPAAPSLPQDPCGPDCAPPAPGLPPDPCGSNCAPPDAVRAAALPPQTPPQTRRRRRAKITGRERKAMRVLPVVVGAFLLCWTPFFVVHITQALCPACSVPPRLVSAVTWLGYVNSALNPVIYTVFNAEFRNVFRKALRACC
# [8] = target: T1, human dopamine D3 receptor (hD3R); test: GPCR functional assay, antagonist effect; type: cell-based; settings: for % inhibition: D3 (h), % inhibition of control response to 10 nM dopamine at 50 μM of anthraquinones
# [9] = target: T4, human dopamine D4 receptor (hD4R); test: GPCR functional assay, agonist effect; type: cell-based; settings: D4 (h); % of control agonist (dopamine) response at 50 μM of anthraquinones
# [10] = target: T5, human 5-HT1A receptor (h5-HT1AR) (Homo sapiens, UniProt P08908); test: GPCR functional assay, antagonist effect; type: cell-based; settings: for % inhibition: 5-HT1A (h), % inhibition of control response to 30 nM serotonin at 50 μM of anthraquinones
# T5 sequence (P08908 1-422): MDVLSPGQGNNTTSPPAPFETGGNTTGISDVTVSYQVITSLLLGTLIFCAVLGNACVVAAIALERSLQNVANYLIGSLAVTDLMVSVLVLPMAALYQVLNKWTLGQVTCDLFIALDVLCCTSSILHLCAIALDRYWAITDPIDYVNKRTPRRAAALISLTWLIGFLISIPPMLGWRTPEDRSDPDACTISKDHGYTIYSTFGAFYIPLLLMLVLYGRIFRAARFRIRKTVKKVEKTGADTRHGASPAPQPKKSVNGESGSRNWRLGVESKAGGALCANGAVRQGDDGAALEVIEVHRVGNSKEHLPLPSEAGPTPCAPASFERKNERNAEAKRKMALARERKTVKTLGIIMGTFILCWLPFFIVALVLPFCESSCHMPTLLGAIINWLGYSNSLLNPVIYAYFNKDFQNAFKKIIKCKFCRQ
# [11] = target: T5, human 5-HT1A receptor (h5-HT1AR); test: GPCR functional assay, agonist effect; type: cell-based; settings: 5-HT1A (h); % of control response to serotonin (2.5 μM) at 50 μM of anthraquinones
# [12] = system: U87MG cells; settings: 20 and 40 μM; cited from earlier work
# [13] = target: T2, human vasopressin V1A receptor (hV1AR); test: cell-based
# [14] = target: T3, human dopamine D1 receptor (hD1R); test: GPCR functional assay, antagonist effect; type: cell-based; settings: CHO
# [15] = system: human glioblastoma U87MG-implanted nude CG1 mice; settings: i.p. 50 mg/(kg day) for 15 days; decreasing Ki67 positive cells; cited from earlier work
# [16] = system: human epidermoid carcinoma A431 cell; settings: 100 μM, 4 nM (−)-epinephrine, 2 μM nicotinic acid, 8 μM histamine; cited from earlier work
# [17] = 20 and 40 mg/kg, rapid phase II metabolism to glucuronide; cited from earlier work
# [18] = system: cerebral ischemia/reperfusion (I/R) model rats; settings: intraperitoneal injection, 25 g/(kg day); cited from earlier work
# [19] = system: cycloheximide-induced amnesia in rats; settings: cited from earlier work
Compound,% stimulation [3],% stimulation [5],agonist response at hV1AR (in words) [5],% stimulation [6],inhibition at 50 µM [7] [%],% inhibition [8] [%],% stimulation [9],antagonist effect on h5-HT1AR (in words) [10],% inhibition [10] [%],% stimulation [11],effect on hV1AR (in words) [13],inhibition at 50 µM [14] [%],other results
"COc1ccc(S(=O)(=O)N2c3ccc(Cl)cc3[C@](O)(c3ccccc3Cl)[C@@H]2C(=O)N2CCC[C@H]2C(N)=O)cc1OC [SR49059, (2S)1-{(2R,3S)-5-chloro-3-(2-chloro-phenyl)-1-(3,4-dimethoxybenzene-sulfonyl)-3-hydroxy-2,3-dihydro-1H-indole-2-carbonyl}pyrrolidine-2-carboxamide]",–,–,–,–,–,–,–,–,–,–,–,–,brain edema [1]: prevented brain edema
COc1ccccc1N1CCN(CC(C(=O)NC(C)(C)C)c2ccccc2)CC1 (stereo not drawn) [WAY 100 135],–,–,–,–,–,–,–,–,–,–,–,–,phase 2 (long lasting) intense flinching behavior [2]: inhibited
O=C1c2cccc(O)c2C(=O)c2c(O)cc(CO)cc21 [aloe-emodin],–57.95 ± 32.88%,7.45 ± 1.20%,did not show any agonist response,0.15 ± 4.45%,25.7,20.60 ± 6.79,-53.15 ± 7.00%,remained ineffective,1.55 ± 3.61,3.45 ± 0.21%,did not have any observable effect,-47.9,IC50 (acetylcholinesterase activity) [4]: 18.37 µg/mL; hD4R antagonist effect (in words) [7]: mild antagonist effect; hD3R antagonist effect (in words) [8]: mild hD3R antagonist effect; cell cycle effect [12]: induced cell cycle arrest; effect in mouse brain tumour model [15]: showed antiproliferative effect
Cc1cc(O)c2c(c1)C(=O)c1cc(O)cc(O)c1C2=O [emodin],75.6% and 75.60 ± 12.87%,–4.80 ± 0.69%,did not show any agonist response,–3.55 ± 0.64%,-0.35,−10.8 ± 6.59,2.35 ± 2.76%,remained ineffective,18.4 ± 3.89,–3.56 ± 0.21%,–,-10.2,"EC50 [3]: 21.9 ± 2.66 µM; effect on agonist-induced dynamic mass redistribution signals [16]: inhibited; parent form in vivo after oral administration [17]: almost undetectable; neurological deficit scores [18]: improved neurological deficit scores; cycloheximide-induced amnesia [19]: improved cycloheximide-induced amnesia; IC50 [13]: 10.2 ± 1.97 µM; inhibition at 12.5 µM ([13]; CHO, read-out: inhibition of 10 nM AVP-induced intracellular Ca2+ concentration): > 50%; % inhibition ([13]; V1A (h), % inhibition of control response to 10 nM AVP at 50 μM of anthraquinones): 69.35 ± 1.34%"
COc1cc(O)cc2c1C(=O)c1c(O)cc(C)cc1C2=O [questin],34.85% and 34.85 ± 0.78%,–3.40 ± 0.71%,did not show any agonist response,–2.10 ± 0.85%,4.5,1.25 ± 7.42,–38.15 ± 15.91%,remained ineffective,0.70 ± 4.10,2.45 ± 0.49%,did not have any observable effect,10.9,hD3R agonist effect (in words) [3]: moderate hD3R agonist effect
